# Reference: PMC10177926, “Leveraging the 3-Chloro-4-fluorophenyl Motif to Identify Inhibitors of Tyrosinase from Agaricus bisporus” (International Journal of Molecular Sciences, 2023)
# Molecular target: tyrosinase from Agaricus bisporus (AbTYR) (Agaricus bisporus, UniProt C7FF04)
# Assay: diphenolase inhibition of AbTYR (L-DOPA substrate, absorbance at 475 nm)
# Type: biochemical
# Conditions: diphenolase activity
# Description: Mushroom tyrosinase (EC 1.14.18.1) was supplied by Merck (Cat. No. T3824). In vitro assay was performed according to the method of Mirabile et al.. Each sample (0.05 mL) at different concentrations (0.10–200 μM) was mixed with 0.5 mL of L-DOPA solution (1.25 mM) and 0.9 mL of phosphate buffer solution (pH 6.8). After a 10 min incubation at 25 °C, 0.05 mL of an aqueous solution of the enzyme was added to the mixture. […] The inhibition rate was calculated with the following mathematical equation:Inhibition % = (A − B/A) × 100 where A = absorbance of negative control and B = absorbance of test sample. Finally, IC50 values were determined by interpolation of the dose–response curves.
# tyrosinase from Agaricus bisporus (AbTYR), sequence (C7FF04 2-392): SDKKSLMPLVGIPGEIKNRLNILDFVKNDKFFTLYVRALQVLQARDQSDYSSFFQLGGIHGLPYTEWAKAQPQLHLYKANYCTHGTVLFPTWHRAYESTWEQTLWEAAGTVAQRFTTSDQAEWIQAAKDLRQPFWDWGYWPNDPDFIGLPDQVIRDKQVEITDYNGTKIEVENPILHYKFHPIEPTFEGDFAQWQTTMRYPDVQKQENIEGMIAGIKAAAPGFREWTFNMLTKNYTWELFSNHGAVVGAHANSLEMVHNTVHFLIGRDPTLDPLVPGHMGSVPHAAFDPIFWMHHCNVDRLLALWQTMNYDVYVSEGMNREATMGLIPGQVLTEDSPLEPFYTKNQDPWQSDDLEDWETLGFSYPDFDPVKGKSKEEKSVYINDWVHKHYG
row,Structure (SMILES),"AbTYR inhibitory effect, result in words"
1,"Nn1c(SCc2ccc(F)cc2Cl)nnc1-c1ccncc1 [3c, 3-((2-Chloro-4-fluorobenzyl)thio)-5-(pyridin-4-yl)-4H-1,2,4-triazol-4-amine]",inhibitory effects dramatically disappeared

# System: not given
# Assay: not given
# Conditions: not given
row,melting point [°C],Structure (SMILES)
1,121 to 124,"O=C(c1ccc(Cl)cc1Cl)N1CCN(Cc2ccc(F)c(Cl)c2)CC1 [1d, (4-(3-Chloro-4-fluorobenzyl)piperazin-1-yl)(2,4-dichlorophenyl)methanone]"
2,133 to 135,"O=C(c1cc(F)ccc1C(F)(F)F)N1CCN(Cc2ccc(F)c(Cl)c2)CC1 [1e, (4-(3-Chloro-4-fluorobenzyl)piperazin-1-yl)(5-fluoro-2-(trifluoromethyl)phenyl)methanone]"
3,111 to 113,"O=C(c1cc2ccccc2s1)N1CCN(Cc2ccc(F)c(Cl)c2)CC1 [1f, Benzo[b]thiophen-2-yl(4-(3-chloro-4-fluorobenzyl)piperazin-1-yl)methanone]"
4,165 to 168,"O=C(CN1CCN(Cc2ccc(F)c(Cl)c2)CC1)N1CCN(c2ccc(O)cc2)CC1 [2c, 2-(4-(3-Chloro-4-fluorobenzyl)piperazin-1-yl)-1-(4-(4-hydroxyphenyl)piperazin-1-yl)ethanone]"
5,172 to 174,"CC(C(=O)N1CCN(c2ccc(O)cc2)CC1)N1CCN(Cc2ccc(F)c(Cl)c2)CC1 (stereo not shown) [2d, 2-(4-(3-Chloro-4-fluorobenzyl)piperazin-1-yl)-1-(4-(4-hydroxyphenyl)piperazin-1-yl)propan-1-one]"
6,164 to 165,"Nn1c(SCc2ccc(F)c(Cl)c2)nnc1-c1ccncc1 [3b, 3-(3-Chloro-4-fluorobenzylthio)-5-(pyridin-4-yl)-4H-1,2,4-triazol-4-amine]"
7,171 to 172,"Nn1c(SCc2ccc(F)cc2Cl)nnc1-c1ccncc1 [3c, 3-((2-Chloro-4-fluorobenzyl)thio)-5-(pyridin-4-yl)-4H-1,2,4-triazol-4-amine]"
8,164 to 166,"Nn1c(SCc2ccc(F)c(Cl)c2)nnc1-c1ccccc1 [3d, 3-(3-Chloro-4-fluorobenzylthio)-5-phenyl-4H-1,2,4-triazol-4-amine]"
9,34 to 35,"c1ccc(SCSc2ccccc2)cc1 [4b, Phenylsulfanylmethylsulfanylbenzene]"
